From patent publication US20110144177A1, “Carbamoyl Esters That Inhibit Cholinesterase And Release Pharmacologically Active Agents” (priority 2003, published 2011)

Tests used:
[1] = test system: scopolamine-induced amnesia; assay: Scopolamine induced amnesia in multiple trial passive (inhibitory) avoidance assay; type: in vivo, rat; details: for Performance relative to scopolamine / Performance relative to saline: at the most effective dose, latency to enter dark chamber; for Performance relative to scopolamine: relative to impaired (scopolamine) group; for Performance relative to saline: relative to unimpaired (saline) control group; for most effective dose (the dose that increases the latency the most): i.p. immediately after training, scopolamine 0.75 mg/kg, retention 24 hours later
From the text: Inhibitory avoidance is used as a cognitive performance screen because the discrete nature of the task allows for precise pharmacological manipulation and for the ability to selectively study acquisition, consolidation, or recall or learned information.
The inhibitory avoidance apparatus used in these experiments consisted of a light chamber and a dark chamber, which were joined by means of a sliding guillotine door. Training involved placing a rat inside the light chamber with its head facing away from the door. Ten seconds later, the sliding door was opened, and the latency to enter the dark chamber was recorded (100 second maximum). When the rat entered the dark chamber, it received a continuous footshock (0.4 mA) through the metal grid floor until it returned to the light chamber. This sequence of events continued until the rat remained in the light chamber for a period of 100 consecutive seconds or until a maximum of 5 footshocks had been received.
Retention testing, or the ability of the rat to remember the previous events in the inhibitory avoidance apparatus, was conducted 24 hours after the initial testing. The rat was placed into the light chamber with its head facing away from the door. Ten seconds later, the door was opened, allowing the rat access to the dark chamber. No footshock was administered during retention testing. Latency to enter the dark chamber was recorded (900 seconds maximum) and used as a measure of memory.
To assess the effects of the carbamoyl esters on scopolamine-induced amnesia, rats were injected with saline or scopolamine hydrochloride (0.75 mg/kg) 30 minutes prior to training on the Inhibitory Avoidance task. Immediately following the training trial, rats were injected with saline or the carbamoyl ester.
Retention for the task in scopolamine or saline treated rats, was assessed as described above, 24 hours later. No compound (drug) was administered to the rat prior to the retention test and no shock was given during retention testing. For retention testing, the rat was placed into the light chamber. Fifteen seconds later, the door was automatically opened and latency to enter the dark compartment was measured. The latency to enter the dark chamber is the primary measure of memory on this task. Carbamoyl esters were evaluated in this protocol.

[2] = test system: total cholinesterase activity in the brain; assay: Total cholinesterase activity in brain homogenate after i.p. injection; type: in vivo, Male Wistar rats; details: for tolerability of the dose: i.p. dose giving a cholinergic behavioral effect with minimal side effects
Protocol: Animals were decapitated 3 hours after injection and the brains rapidly removed. The brain tissue was diced into small pieces, placed on ice and immediately homogenized with a Polytron PT1200 (Kinematic AG) in 10 ml ice cold Tris with 0.1% Triton-X and protease inhibitors. The protease inhibitors in the extraction buffer were Antipain (10 μM), Aprotinin (5 TIU/mg protein), Bestatin ([…]), Leupeptin (10 μM) and Pepstatin (1 μM). The final dilution of the homogenate in the final assay mixture was 120-fold.
Total cholinesterase activity was determined by a modification of the colorimetric method of Ellmann, et al. (Biochem. Pharmacol., 7:88-95 (1961)), as described above. Hydrolysis of acetylthiocholine was monitored indirectly by measurement of the formation of the conjugate between thiocholine and DTNB. Optical density at 405 nm was recorded during five (5) minutes employing a microplate spectrophotometer (Polarstar, BMG Labtech), and plotted against time. The initial rates were calculated from the slope of the linear portion of the graph.
Cholinesterase activity was normalized for protein content of the homogenate. Relative cholinesterase activity was calculated as the ratio of normalized cholinesterase activity in a rat treated with a control compound or a carbamoyl ester over normalized cholinesterase activity in saline treated rats.

[3] = target: human recombinant acetylcholinesterase (Homo sapiens, UniProt P22303); type: biochemical
Chain of human recombinant acetylcholinesterase (P22303 32-614): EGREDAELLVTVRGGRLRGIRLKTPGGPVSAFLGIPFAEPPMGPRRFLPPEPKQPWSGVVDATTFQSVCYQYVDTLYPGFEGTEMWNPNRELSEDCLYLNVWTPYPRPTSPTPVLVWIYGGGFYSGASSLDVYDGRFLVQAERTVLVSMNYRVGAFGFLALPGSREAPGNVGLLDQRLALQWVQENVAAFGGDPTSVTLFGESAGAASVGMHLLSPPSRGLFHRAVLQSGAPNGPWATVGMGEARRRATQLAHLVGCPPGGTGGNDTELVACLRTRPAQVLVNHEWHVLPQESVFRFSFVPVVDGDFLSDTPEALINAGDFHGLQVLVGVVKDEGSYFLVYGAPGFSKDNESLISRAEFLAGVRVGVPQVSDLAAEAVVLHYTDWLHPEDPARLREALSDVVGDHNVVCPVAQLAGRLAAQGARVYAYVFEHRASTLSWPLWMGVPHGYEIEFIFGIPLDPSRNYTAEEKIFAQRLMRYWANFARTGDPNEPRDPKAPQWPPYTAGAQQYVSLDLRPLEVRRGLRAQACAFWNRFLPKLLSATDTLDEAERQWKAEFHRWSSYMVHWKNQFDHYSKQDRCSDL

| SMILES | Performance relative to scopolamine [1] [%] | Performance relative to saline [1] [%] | most effective dose (the dose that increases the latency the most) [1] [mg/kg] | ChE inhibition ([2]; 2 mg/kg i.p., brain 3 hours after injection) [%] | Relative ChE Activity ([2]; 2 mg/kg i.p., brain 3 hours after injection, relative to saline treated rats) [%] | tolerability of the dose [2] | ChE inhibition ([2]; 8 mg/kg i.p., brain 3 hours after injection) [%] | fold increase in enzymatic activity compared to rivastigmine [3] [fold] |
| --- | --- | --- | --- | --- | --- | --- | --- | --- |
| CC(Cc1ccccc1)NC(=O)Oc1cccc([C@H](C)N(C)C)c1 (some centres unmarked) [Compound 3] | 294 | 100 | 1.4 |  |  |  |  |  |
| C[C@H](Cc1ccccc1)N(C)C(=O)Oc1cccc([C@H](C)N(C)C)c1 [Compound 7] | 298 | 64 | 0.25 | 38 | 62 | well-tolerated |  |  |
| C[C@H](Cc1ccccc1)NC(=O)Oc1cccc([C@H](C)N(C)C)c1 [Compound 9] | 306 | 83 | 0.1 |  |  | well-tolerated | 41 |  |
| C[C@H](Cc1ccccc1)NC(=O)Oc1ccc2c(c1)[C@]1(C)CCN(C)[C@@H]1N2C [Compound 14] | 186 | 51 | 0.02 |  |  |  |  | 10 |
| CCN(C)C(=O)Oc1cccc([C@H](C)N(C)C)c1 [Rivastigmine, reference compound] |  |  | 0.25 |  |  | well-tolerated |  |  |
